System: Aβ from H1299 cell-conditioned media
Experiment: ELISA, HN (endogenous and exogenously added) and AChE bound to Aβ from H1299 media on 82E1 antibody
Type: binding, human
Settings: H1299 media, Fig. 6B
Method: Human NSCLC cell lines, A549 (ATCC CCL‐185) and H1299 (ATCC CRL‐5803), were purchased from the American Type Culture Collection (ATCC, Manassas, VA, USA). Cells were seeded as we reported earlier in 5 mL HyClone Dulbecco's modified Eagle's medium/nutrient mixture F‐12 (DMEM/F12) (GE Healthcare Life Sciences, Pittsburgh, PA, USA), supplemented with 10% Fetalgro bovine growth serum (FBS; RMBIO, Missoula, MT, USA), 50 U·mL^−1 penicillin, and […] streptomycin (Invitrogen, Life Technologies, Carlsbad, CA, USA) in 25‐cm^2 tissue culture flasks, and allowed to grow overnight in an incubator at 37 °C, 95% humidity, and 5% CO2. The cells were counted after trypan blue staining, with a hemocytometer.
ELISAs were carried out as we previously reported. Nunc MaxiSorp 96‐well flat bottom plate (Thermo Fisher) wells were coated with samples as indicated. The plates were incubated overnight at 4 °C on a shaker to allow binding of the samples to the plate wells. After the incubation, the wells were washed 4× with TBST, filled with 400 µL blocking buffer (110 mM KCl, 5 mM NaHCO3, 5 mM MgCl2, 1 mM EGTA, 0.1 mM CaCl2, 20 mM HEPES, 1% BSA, pH 7.4), and incubated with shaking overnight at 4 °C. The wells were then washed 4× with TBST, and 100 µL of sample at the desired concentration was added to each well and incubated with shaking overnight at 4 °C. TBST was then used to wash the wells 4× before proceeding in one of two ways: (a) biotinylated samples were analyzed by adding 100 µL streptavidin–HRP conjugate in TBST (1 : 2500 dilution) to the samples followed by incubation for 3 h at RT on a shaker, or (b) samples without biotin were analyzed by adding 100 µL TBST containing the primary antibody as per the manufacturer's recommendation, incubating for 3 h at RT on a shaker, followed by washing the wells 4× with TBST. […] The reaction was stopped with 100 µL 2 M H2SO4 after incubating at RT for 0.5–15 min, resulting in a yellow color change, measured by absorbance at 450 nm. […] Before analysis, the OD from the data was corrected for nonspecific binding by subtracting the mean background absorbance for the negative controls. […] Statistical analysis was determined by the […] […] Data were expressed as the mean ± SD. […]
Anti‐Aβ‐specific antibodies (82E1) were added (1 : 1000 dilution) to ELISA plate wells (Fig. 6). The wells were blocked, and then, 300 µL of the conditioned media (0.5 µg·µL^−1) of A549 or H1299 cells, 72 h postserum starvation, was added in the absence or presence of increasing HN concentrations, and the HN and AChE bound were detected using the corresponding specific primary antibodies. Fold change relative to controls that included all components but without the primary antibodies was calculated and fit with a nonlinear regression curve using the […] […]

Compound	effect of ATP on binding of exogenously added HN to Aβ (0.1 mM, 1 mM ATP (more pronounced at 1 mM))	effect of ATP on binding of endogenous HN to Aβ (increasing ATP (0.1 mM, 1 mM; more pronounced at 1 mM), 82E1)	HN concentration at which signal begins to level off (exogenous HN)	binding of exogenous HN to Aβ (increasing exogenous HN, 82E1)
Nc1ncnc2c1ncn2[C@@H]1O[C@H](COP(=O)(O)OP(=O)(O)OP(=O)(O)O)[C@@H](O)[C@H]1O [ATP, Adenosine triphosphate]	decreased binding of exogenously added HN	increased binding of endogenous HN	–	–
Humanin [HN]	–	–	around 50 nM	increased binding to Aβ

Reference: PMC7714071, “Interaction of amyloid beta with humanin and acetylcholinesterase is modulated by ATP” (FEBS Open Bio, 2020)
